Legend:
[1] = molecular target: T1, GST tagged LXRalpha LBD (ligand binding domain) (Homo sapiens, UniProt Q13133); test: LanthaScreen TR-FRET Liver X Receptor Coactivator Assay, LXR alpha-LBD (co-activator recruitment; IP and % Emax relative to T0901317); assay type: biochemical; details: for EC50 / LXR alpha IP (nM): Inflection Point of co-activator recruitment, LXR alpha-LBD, TR-FRET; for Emax: read-out: LXR alpha actiivty at max dose (%)
T1 construct: purchased Invitrogen pv4655
T1 sequence (Q13133 209-447 limits assumed): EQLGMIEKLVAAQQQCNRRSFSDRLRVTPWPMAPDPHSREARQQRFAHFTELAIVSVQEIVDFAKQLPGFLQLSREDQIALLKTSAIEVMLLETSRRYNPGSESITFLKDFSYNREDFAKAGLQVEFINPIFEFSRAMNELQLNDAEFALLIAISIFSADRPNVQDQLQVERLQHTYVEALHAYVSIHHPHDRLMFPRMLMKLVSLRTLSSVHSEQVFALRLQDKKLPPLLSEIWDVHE
Method in brief: (§1)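 Compounds were first combined with the GST-LBD protein. A premixed fluorescein coactivator peptide and terbium-labelled anti-GST antibody was then added. Plates were incubated at room temperature and TR-FRET measured.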

[2] = molecular target: T2, GST tagged LXRbeta LBD (ligand binding domain) (Homo sapiens, UniProt P55055); test: LanthaScreen TR-FRET Liver X Receptor Coactivator Assay, LXR beta-LBD (co-activator recruitment; IP and % Emax relative to T0901317); assay type: biochemical; details: for EC50: Inflection Point of co-activator recruitment, LXR beta-LBD, TR-FRET; for Emax: read-out: LXR beta actiivty at max dose (%)
T2 construct: purchased Invitrogen pv4658.pps
T2 sequence (P55055 222-460 limits assumed): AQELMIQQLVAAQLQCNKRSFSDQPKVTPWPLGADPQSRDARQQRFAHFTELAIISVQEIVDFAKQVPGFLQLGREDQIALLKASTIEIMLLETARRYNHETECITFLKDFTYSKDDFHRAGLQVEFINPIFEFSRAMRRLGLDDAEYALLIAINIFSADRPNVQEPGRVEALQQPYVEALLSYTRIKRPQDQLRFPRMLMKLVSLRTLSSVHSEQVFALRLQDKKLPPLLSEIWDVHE
Method in brief: as §1

[3] = efficacy at max dose in relation to reference T0901317, LXR alpha-LBD
[4] = efficacy at max dose in relation to reference T0901317, LXR beta-LBD

SMILES	EC50 [1]	Emax [1, 3]	EC50 [2]	Emax [2, 4]	LXR alpha IP (nM) [1]	LXR alpha actiivty at max dose (%) [1, 3]	LXR beta actiivty at max dose (%) [2, 4]
CN(C)C(=O)c1ccc(N2CCC(CCCNC(=O)[C@](O)(c3cccc(O)c3)C(F)(F)F)CC2)nc1Cl [Example 5-22, (R)-2-chloro-N,N-dimethyl-6-(4-(3-(3,3,3-trifluoro-2-hydroxy-2-(3-hydroxyphenyl)propanamido)propyl)piperidin-1-yl)nicotinamide]	10300 nM	31%	1190 nM	101%			
COc1cccc([C@@](O)(C(=O)N(C)CCCC2CCN(c3ccc(C(=O)N(C)C)c(C)n3)CC2)C(F)(F)F)c1 [Example 2-20, (R)-N,N,2-trimethyl-6-(4-(3-(3,3,3-trifluoro-2-hydroxy-2-(3-methoxyphenyl)-N-methylpropanamido)propyl)piperidin-1-yl)nicotinamide]		0%	271 nM	64%	No IP		
CN[C@@](C(=O)N(C)CCCC1CCN(c2ccc(C(=O)N(C)C)c(Cl)n2)CC1)(c1cccc(OC)c1)C(F)(F)F [Example 1-57, (R)-2-chloro-N,N-dimethyl-6-(4-(3-(3,3,3-trifluoro-2-(3-methoxyphenyl)-N-methyl-2-(methylamino)propanamido)propyl)piperidin-1-yl)nicotinamide]		0%	268 nM	48%	No IP		
CN(C)C(=O)c1ccc(N2CCC(CC3CC(NC(=O)[C@](O)(c4ccccc4)C(F)(F)F)C3)CC2)cc1Cl (stereo partly drawn) [Example 11-4, (R)-2-chloro-N,N-dimethyl-4-(4-((3-(3,3,3-trifluoro-2-hydroxy-2-phenylpropanamido)cyclobutyl)methyl)piperidin-1-yl)benzamide]		14%	270 nM	85%	No IP		
CN(C)C(=O)c1ccc(N2CCC(CCCNC(=O)[C@](O)(c3cc(Cl)cc(Cl)c3)C(F)(F)F)CC2)nc1Cl [Example 5-13, (R)-2-chloro-6-(4-(3-(2-(3,5-dichlorophenyl)-3,3,3-trifluoro-2-hydroxypropanamido)propyl)piperidin-1-yl)-N,N-dimethylnicotinamide]		9%	187 nM	54%	No IP		
Cc1cccc([C@](O)(C(=O)N(C)CCCC2CCN(c3ccc(C(=O)N(C)C)c(Cl)n3)CC2)C(F)(F)F)c1 [Example 1-16, (S)-2-chloro-N,N-dimethyl-6-(4-(3-(3,3,3-trifluoro-2-hydroxy-N-methyl-2-m-tolylpropanamido)propyl)piperidin-1-yl)nicotinamide]		1%	179 nM	54%	No IP		
COc1cccc([C@@](O)(C(=O)N(C)CCCC2CCN(c3cc(Cl)c(C(=O)N(C)C)cn3)CC2)C(F)(F)F)c1 [Example 2-21, (R)-4-chloro-N,N-dimethyl-6-(4-(3-(3,3,3-trifluoro-2-hydroxy-2-(3-methoxyphenyl)-N-methylpropanamido)propyl)piperidin-1-yl)nicotinamide]	5940 nM	26%	1910 nM	30%			
COc1cccc([C@@](O)(C(=O)N(C)CCCC2CCN(c3ccc(C(=O)N(C)C)c(C4CC4)n3)CC2)C(F)(F)F)c1 [Example 2-17, (R)-2-cyclopropyl-N,N-dimethyl-6-(4-(3-(3,3,3-trifluoro-2-hydroxy-2-(3-methoxyphenyl)-N-methylpropanamido)propyl)piperidin-1-yl)nicotinamide]		0%	5730 nM	22%	No IP		
CN(C)C(=O)c1ccc(N2CCC(CCCN(C)C(=O)[C@](O)(c3ccccc3)C(F)(F)F)CC2)nc1Cl [Example 1-1, (R)-2-chloro-N,N-dimethyl-6-(4-(3-(3,3,3-trifluoro-2-hydroxy-N-methyl-2-phenylpropanamido)propyl)piperidin-1-yl)nicotinamide]	752 nM					27%	78%
COc1cccc([C@]2(C(=O)N(C)CCCC3CCN(c4ccc(C(=O)N(C)C)c(Cl)n4)CC3)CCCO2)c1 [Example 1-46, (S)-2-chloro-6-(4-(3-(2-(3-methoxyphenyl)-N-methyltetrahydrofuran-2-carboxamido)propyl)piperidin-1-yl)-N,N-dimethylnicotinamide]		0%	412 nM	37%	No IP		
CN(C)C(=O)c1ccc(N2CCC(CCCN(C)C(=O)[C@]3(C(F)(F)F)CCCO3)CC2)nc1Cl [Example 1-8, (S)-2-chloro-N,N-dimethyl-6-(4-(3-(N-methyl-2-(trifluoromethyl)-tetrahydrofuran-2-carboxamido)propyl)piperidin-1-yl)nicotinamide]	1770 nM	51%	106 nM	81%			
CN(C)C(=O)c1ccc(N2CCC(CCCN(C)C(=O)[C@](O)(c3ccccc3)C3CC3)CC2)nc1Cl [Example 1-24, (R)-2-chloro-6-(4-(3-(2-cyclopropyl-2-hydroxy-N-methyl-2-phenylacetamido)propyl)piperidin-1-yl)-N,N-dimethylnicotinamide]		12%	351 nM	59%	No IP		
CN(C)C(=O)c1ccc(N2CCC(CCCNC(=O)[C@@]3(c4ccccc4)CCCO3)CC2)nc1Cl [Example 5-18, (S)-2-chloro-N,N-dimethyl-6-(4-(3-(2-phenyltetrahydrofuran-2-carboxamido)propyl)piperidin-1-yl)nicotinamide]		7%	990 nM	66%	No IP		

The next lines start with the values.

EC50 [1]	Emax [1, 3]	EC50 [2]	Emax [2, 4]	LXR alpha IP (nM) [1]	LXR alpha actiivty at max dose (%) [1, 3]	LXR beta actiivty at max dose (%) [2, 4]	SMILES
1450 nM	33%	60 nM	93%				COc1ccccc1[C@@]1(C(=O)N(C)CCCC2CCN(c3ccc(C(=O)N(C)C)c(Cl)n3)CC2)CCCO1 [Example 1-60, (R)-2-chloro-6-(4-(3-(2-(2-methoxyphenyl)-N-methyltetrahydrofuran-2-carboxamido)propyl)piperidin-1-yl)-N,N-dimethylnicotinamide]
	10%	17 nM	58%	No IP			COc1cccc([C@@](O)(C(=O)N(C)C[C@@H]2C[C@@H]2C2CCN(c3ccc(C(=O)N(C)C)c(Cl)n3)CC2)C(F)(F)F)c1 [Example 15-3, 2-chloro-N,N-dimethyl-6-(4-((1R,2R)-2-(((R)-3,3,3-trifluoro-2-hydroxy-2-(3-methoxyphenyl)-N-methylpropanamido)methyl)cyclopropyl)piperidin-1-yl)nicotinamide]
601 nM	24%	32 nM	61%				CN(C)C(=O)c1ccc(N2CCC3(CC2)C[C@@H]3CCN(C)C(=O)[C@](O)(c2cccc(OC3CC3)c2)C(F)(F)F)cc1Cl [Example 7-3, 2-chloro-4-((R)-1-(2-((R)-2-(3-cyclopropoxyphenyl)-3,3,3-trifluoro-2-hydroxy-N-methylpropanamido)ethyl)-6-azaspiro[2.5]octan-6-yl)-N,N-dimethylbenzamide]
504 nM	42%	22 nM	64%				CNC(=O)c1ccc(N2CCC3(CC2)C[C@H]3CCN(C)C(=O)[C@](O)(c2ccccc2)C(F)(F)F)cc1Cl (single isomer, unassigned) [Example 7-7]
	16%	45 nM	57%	No IP			COc1cccc([C@@](O)(C(=O)N(C)CC[C@H]2CC23CCN(c2ccc(C(=O)N(C)C4CC4)c(Cl)n2)CC3)C(F)(F)F)c1 [Example 7-18, 2-chloro-N-cyclopropyl-N-methyl-6-((R)-1-(2-((R)-3,3,3-trifluoro-2-hydroxy-2-(3-methoxyphenyl)-N-methylpropanamido)ethyl)-6-azaspiro[2.5]octan-6-yl)nicotinamide]
1060 nM	35%	100 nM	58%				COc1cccc([C@@](O)(C(=O)N(C)CC[C@H]2CC23CCN(c2ccc(C(=O)NC(C)C)c(Cl)c2)CC3)C(F)(F)F)c1 [Example 7-10, 2-chloro-N-isopropyl-4-((R)-1-(2-((R)-3,3,3-trifluoro-2-hydroxy-2-(3-methoxyphenyl)-N-methylpropanamido)ethyl)-6-azaspiro[2.5]octan-6-yl)benzamide]
680 nM	37%	12 nM	58%				COc1cccc([C@@](O)(C(=O)N(C)CC[C@H]2CC23CCN(c2ccc(C(=O)N(C)C)c(Cl)n2)CC3)C(F)(F)F)c1 [Example 7-15, 2-chloro-N,N-dimethyl-6-((R)-1-(2-((R)-3,3,3-trifluoro-2-hydroxy-2-(3-methoxyphenyl)-N-methylpropanamido)ethyl)-6-azaspiro[2.5]octan-6-yl)nicotinamide]

Reference: US10961215B2, “N-aryl and N-heteroaryl piperidine derivatives as liver X receptor beta agonists, compositions, and their use” (Merck Sharp & Dohme Corp., priority 2016, dated 2021)
